In brackets after ≈: the same amount, converted by molar mass. Several values for one entry are separate records, joined by “and”; a condition that tells them apart may be missing. Identical values can stand only once. Like-named read-outs stand apart in the source and are kept apart here.
Experiments:
[1] = test system: 100 A. baumannii strains (50 MDR, 50 non-MDR); assay: MIC broth microdilution at IHMA Europe, panel of 100 strains; assay type: cell-based; details: for MIC / MIC50 / MIC90: Acinetobacter baumannii
[2] = test system: 3 sensitive and 7 MDR A. baumannii clinical isolates; assay: MIC, Hungarian clinical isolates and controls (384-well); assay type: cell-based
physchem = assay type: physicochemical
Outline: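 Solid compound (~1 mg) added to PBS at ~1 mg/mL; supernatant diluted 3× in 0.1% TFA water/acetonitrile 1:1 and quantified by reversed-phase UHPLC against a 7-point calibration curve. Thermodynamic solubility reported in μM, mean of two independent experiments.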

[3] = pH 7.4, thermodynamic solubility (pH = 7.4)

Cc1[nH]c(C(=O)Nc2nc3c(N4CCOCC4)cc(C(=O)O)cc3s2)c(Cl)c1Cl [7a, 2-(3,4-Dichloro-5-methyl-1H-pyrrole-2-carboxamido)-4-morpholinobenzo[d]thiazole-6-carboxylic Acid]
MIC ([1]; A. baumannii IHMA 1769910, Israel 2018, Non-MDR): 16 µg/mL (≈ 35.1 µM) | MIC ([1]; A. baumannii IHMA 1795669, Tunisia 2018, Non-MDR): 1 µg/mL (≈ 2.2 µM) | MIC ([1]; A. baumannii IHMA 1814276, Lebanon 2018, MDR): 8 µg/mL (≈ 17.6 µM) | MIC ([1]; A. baumannii IHMA 1815198, Kuwait 2018, MDR): 8 µg/mL (≈ 17.6 µM) | MIC ([1]; A. baumannii IHMA 1821468, South Africa 2018, Non-MDR): 8 µg/mL (≈ 17.6 µM) | MIC ([1]; A. baumannii IHMA 1829500, Georgia 2018, Non-MDR): 8 µg/mL (≈ 17.6 µM) | MIC ([1]; A. baumannii IHMA 1830924, United Kingdom 2018, Non-MDR): 32 µg/mL (≈ 70.3 µM) | MIC ([1]; A. baumannii IHMA 1849819, Kuwait 2018, MDR): 16 µg/mL (≈ 35.1 µM) | MIC ([1]; A. baumannii IHMA 1849829, Kuwait 2018, Non-MDR): 8 µg/mL (≈ 17.6 µM) | MIC ([1]; A. baumannii IHMA 1857118, Slovenia 2018, Non-MDR): 16 µg/mL (≈ 35.1 µM) | MIC ([1]; A. baumannii IHMA 1863631, France 2018, Non-MDR): 8 µg/mL (≈ 17.6 µM) | MIC ([1]; A. baumannii IHMA 1870054, United States 2018, Non-MDR): 8 µg/mL (≈ 17.6 µM) | MIC ([1]; A. baumannii IHMA 1884428, Italy 2018, Non-MDR): 8 µg/mL (≈ 17.6 µM) | MIC ([1]; A. baumannii IHMA 1900538, Turkey 2018, Non-MDR): 8 µg/mL (≈ 17.6 µM) | MIC ([1]; A. baumannii IHMA 1957343, Portugal 2019, Non-MDR): 8 µg/mL (≈ 17.6 µM) | MIC ([1]; A. baumannii IHMA 1963732, Turkey 2019, MDR): 8 µg/mL (≈ 17.6 µM) | MIC ([1]; A. baumannii IHMA 1977077, Kuwait 2019, Non-MDR): 8 µg/mL (≈ 17.6 µM) | MIC ([1]; A. baumannii IHMA 1983151, Greece 2019, MDR): 8 µg/mL (≈ 17.6 µM) | MIC ([1]; A. baumannii IHMA 1984665, Lithuania 2019, MDR): 8 µg/mL (≈ 17.6 µM) | MIC ([1]; A. baumannii IHMA 1986678, Turkey 2019, Non-MDR): 8 µg/mL (≈ 17.6 µM) | MIC ([1]; A. baumannii IHMA 1986738, Turkey 2019, MDR): 8 µg/mL (≈ 17.6 µM) | MIC ([1]; A. baumannii IHMA 1995161, Czech Republic 2019, Non-MDR): 8 µg/mL (≈ 17.6 µM) | MIC ([1]; A. baumannii IHMA 1997936, Morocco 2019, Non-MDR): 8 µg/mL (≈ 17.6 µM) | MIC ([1]; A. baumannii IHMA 2003279, Turkey 2019, MDR): 8 µg/mL (≈ 17.6 µM) | MIC ([1]; A. baumannii IHMA 2014931, South Africa 2019, Non-MDR): 16 µg/mL (≈ 35.1 µM) | MIC ([1]; A. baumannii IHMA 2019315, Romania 2019, Non-MDR): 8 µg/mL (≈ 17.6 µM) | MIC ([1]; A. baumannii IHMA 2020360, Croatia 2019, MDR): 8 µg/mL (≈ 17.6 µM) | MIC ([1]; A. baumannii IHMA 2031524, Greece 2019, MDR): 8 µg/mL (≈ 17.6 µM) | MIC ([1]; A. baumannii IHMA 2034657, Tunisia 2019, Non-MDR): 16 µg/mL (≈ 35.1 µM) | MIC ([1]; A. baumannii IHMA 2035089, Serbia 2019, MDR): 8 µg/mL (≈ 17.6 µM) | MIC ([1]; A. baumannii IHMA 2035134, Serbia 2019, Non-MDR): 8 µg/mL (≈ 17.6 µM) | MIC ([1]; A. baumannii IHMA 2038976, Hungary 2019, MDR): 8 µg/mL (≈ 17.6 µM) | MIC ([1]; A. baumannii IHMA 2058329, Slovenia 2019, Non-MDR): 8 µg/mL (≈ 17.6 µM) | MIC ([1]; A. baumannii IHMA 2099294, United Kingdom 2019, Non-MDR): 8 µg/mL (≈ 17.6 µM) | MIC ([1]; A. baumannii IHMA 2129256, Qatar 2019, Non-MDR): 8 µg/mL (≈ 17.6 µM) | MIC ([1]; A. baumannii IHMA 2154584, Israel 2020, MDR): 8 µg/mL (≈ 17.6 µM) | MIC ([1]; A. baumannii IHMA 2156634, Turkey 2020, MDR): 8 µg/mL (≈ 17.6 µM) | MIC ([1]; A. baumannii IHMA 2156709, Turkey 2020, MDR): 8 µg/mL (≈ 17.6 µM) | MIC ([1]; A. baumannii IHMA 2157614, Australia 2020, Non-MDR): 16 µg/mL (≈ 35.1 µM) | MIC ([1]; A. baumannii IHMA 2177232, Lithuania 2020, MDR): 8 µg/mL (≈ 17.6 µM) | MIC ([1]; A. baumannii IHMA 2177489, Lithuania 2020, MDR): 8 µg/mL (≈ 17.6 µM) | MIC ([1]; A. baumannii IHMA 2178574, Ukraine 2020, Non-MDR): 16 µg/mL (≈ 35.1 µM) | MIC ([1]; A. baumannii IHMA 2180134, Malaysia 2020, Non-MDR): 8 µg/mL (≈ 17.6 µM) | MIC ([1]; A. baumannii IHMA 2181370, Morocco 2020, MDR): 8 µg/mL (≈ 17.6 µM) | MIC ([1]; A. baumannii IHMA 2183729, Argentina 2020, MDR): 16 µg/mL (≈ 35.1 µM) | MIC ([1]; A. baumannii IHMA 2183849, Argentina 2020, Non-MDR): 8 µg/mL (≈ 17.6 µM) | MIC ([1]; A. baumannii IHMA 2193375, Venezuela 2020, MDR): 8 µg/mL (≈ 17.6 µM) | MIC ([1]; A. baumannii IHMA 2193607, Venezuela 2020, MDR): 8 µg/mL (≈ 17.6 µM) | MIC ([1]; A. baumannii IHMA 2195460, Italy 2020, MDR): 8 µg/mL (≈ 17.6 µM) | MIC ([1]; A. baumannii IHMA 2196914, South Africa 2020, MDR): 8 µg/mL (≈ 17.6 µM) | MIC ([1]; A. baumannii IHMA 2196959, South Africa 2020, MDR): 8 µg/mL (≈ 17.6 µM) | MIC ([1]; A. baumannii IHMA 2203763, Spain 2020, MDR): 8 µg/mL (≈ 17.6 µM) | MIC ([1]; A. baumannii IHMA 2212575, Hungary 2020, Non-MDR): 16 µg/mL (≈ 35.1 µM) | MIC ([1]; A. baumannii IHMA 2215307, Hong Kong 2020, Non-MDR): 8 µg/mL (≈ 17.6 µM) | MIC ([1]; A. baumannii IHMA 2216586, Taiwan 2020, MDR): 8 µg/mL (≈ 17.6 µM) | MIC ([1]; A. baumannii IHMA 2224017, Panama 2020, MDR): 16 µg/mL (≈ 35.1 µM) | MIC ([1]; A. baumannii IHMA 2224303, Panama 2020, Non-MDR): 32 µg/mL (≈ 70.3 µM) | MIC ([1]; A. baumannii IHMA 2233099, Guatemala 2020, MDR): 16 µg/mL (≈ 35.1 µM) | MIC ([1]; A. baumannii IHMA 2233430, Kazakhstan 2020, MDR): 8 µg/mL (≈ 17.6 µM) | MIC ([1]; A. baumannii IHMA 2233548, Kazakhstan 2020, Non-MDR): 8 µg/mL (≈ 17.6 µM) | MIC ([1]; A. baumannii IHMA 2238964, Thailand 2020, MDR): 8 µg/mL (≈ 17.6 µM) | MIC ([1]; A. baumannii IHMA 2239052, Thailand 2020, Non-MDR): 8 µg/mL (≈ 17.6 µM) | MIC ([1]; A. baumannii IHMA 2261047, Belgium 2020, MDR): 16 µg/mL (≈ 35.1 µM) | MIC ([1]; A. baumannii IHMA 2261633, Canada 2020, Non-MDR): 16 µg/mL (≈ 35.1 µM) | MIC ([1]; A. baumannii IHMA 2274234, South Africa 2020, MDR): 8 µg/mL (≈ 17.6 µM) | MIC ([1]; A. baumannii IHMA 2274364, South Africa 2020, MDR): 8 µg/mL (≈ 17.6 µM) | MIC ([1]; A. baumannii IHMA 2275237, Chile 2020, Non-MDR): 8 µg/mL (≈ 17.6 µM) | MIC ([1]; A. baumannii IHMA 2316205, United States 2020, MDR): 8 µg/mL (≈ 17.6 µM) | MIC50 ([1]; MDR n = 50): 8 µg/mL (≈ 17.6 µM) | MIC90 ([1]; MDR n = 50): 8 µg/mL (≈ 17.6 µM) | MIC50 ([1]; all isolates n = 100): 8 µg/mL (≈ 17.6 µM) | MIC90 ([1]; all isolates n = 100): 16 µg/mL (≈ 35.1 µM) | MIC50 ([1]; non-MDR n = 50): 8 µg/mL (≈ 17.6 µM) | MIC90 ([1]; non-MDR n = 50): 16 µg/mL (≈ 35.1 µM) | MIC ([1]; read-out: MAX (maximum MIC), non-MDR n = 50): 32 µg/mL (≈ 70.3 µM) | MIC ([1]; read-out: MAX (maximum MIC; all strains inhibited), MDR n = 50): 16 µg/mL (≈ 35.1 µM) | MIC ([1]; read-out: MAX (maximum MIC; all strains inhibited), all isolates n = 100): 32 µg/mL (≈ 70.3 µM) | MIC ([1]; read-out: MIN (minimum MIC), all isolates n = 100): 1 µg/mL (≈ 2.2 µM) | MIC ([1]; read-out: MIN (minimum MIC), non-MDR n = 50): 1 µg/mL (≈ 2.2 µM) | MAX (maximum MIC; all strains inhibited) ([1]; MDR n = 50): 16 µg/mL | Cumulative % at MIC [2]: 80% and 100% | solubility thermodynamic (physchem; pH 7.4, PBS pH 7.4, read-out: thermodynamic solubility, Experiment 1): 100 µM (≈ 45.5 µg/mL) | solubility thermodynamic (physchem; pH 7.4, PBS pH 7.4, read-out: thermodynamic solubility, Experiment 2): 96.6 µM (≈ 44 µg/mL) | solubility thermodynamic (physchem; [3]): 98.3 µM (≈ 44.8 µg/mL) | solubility thermodynamic at 48 h (physchem; [3]): 98 µM (≈ 44.6 µg/mL)

Source: paper PMC10041525, “New Dual Inhibitors of Bacterial Topoisomerases with Broad-Spectrum Antibacterial Activity and In Vivo Efficacy against Vancomycin-Intermediate Staphylococcus aureus” (Journal of Medicinal Chemistry, 2023)
